Data: US20260273028A1, “PEROXIDASE COMPOSITIONS CONTAINING IMPROVED ENHANCING AGENTS” (FLEN HEALTH PHARMA NV, priority 2022, published 2026)

What was measured:
[1] = exemplary values; cited from earlier work
[2] = system: P. aeruginosa (ATCC®9027™); experiment: Microbial challenge testing in alginogel with GOX+LPO; type: cell-based; conditions: for reduction in absolute P. aeruginosa counts compared to guaiacol in the same concentration: alginogel with GOX+LPO, enhancer 0.0005%; for antimicrobial activity of enhancing candidate only against P. aeruginosa: alginogel without enzymes, highest concentration tested; for reduction in absolute P. aeruginosa counts compared to reference (enzymes only): alginogel, 0.0075% GOX+LPO
Method: (§1) To determine the ability of an antimicrobial agent to elicit an antimicrobial preserving efficacy in a gel environment, a microbiological challenge test can be performed. Here, the antimicrobial agent is a combination of the natural enzymes GOX+LPO. […] Microbial challenge testing was performed according to the method described in the European Pharmacopoeia current version chapter 5.1.3 ‘Efficacy of antimicrobial preservation’, but with adapted time points (0, 10, 20, 30, 40, 50, 60, 70 and 80 min instead of 0, 2, 7, 14 and 28 days). In brief, for every enhancing agent to be evaluated, a lab-scale alginogel (based on the Flaminal® formulation, but without the original enhancer guaiacol) including 0.0075% GOX+LPO (1:1) was prepared according to standard practices. Enhancing agents were added to the alginogel in a final concentration ranging from 0.01 to 0,00025% (v/w). As a reference, an alginogel including 0.0075% GOX+LPO (1:1) without the addition of any enhancing agent was included (designated as: enzymes only). As a control, an alginogel without both GOX+LPO (1:1) enzyme solution and enhancing agent (designated as: empty gel) as well as an alginogel only containing the enhancing agent only (designated as: enhancing candidate only) were included. After preparation, a homogenous sample of 10 g was transferred into a 50 ml conical tube for each alginogel to be evaluated and microorganism to be tested. For each test microorganism, including S. aureus (ATCC®6538™), P. aeruginosa (ATCC®9027™), C. albicans (ATCC®10231™) and A. niger (ATCC®16404 ™), a microbial suspension of about 10^8 CFU/ml was prepared in sterile diluent (buffered sodium chloride-peptone solution). Then, the 50 ml conical tubes containing the alginogel samples to be evaluated were inoculated with 100 μl of the designated inoculum. At the start (time point 0) and after 0, 10, 20, 30, 40, 50, 60, 70 and 80 min, the number of viable microorganisms per gram product (expressed as CFU/g) was determined by transferring a sample of 0.5 g of the product into a 15 ml conical tube containing 4.5 ml of sterile diluent and applying general dilution and plate count techniques. For each combination evaluated, this test was repeated at least 1-3 times. The collected data were further analyzed in MS Excel. Mean absolute counts (expressed as log CFU/g) were visualized in a graph.

S. aureus (ATCC®6538™) = experiment: as above; type: cell-based; conditions: for reduction in absolute S. aureus counts compared to guaiacol in the same concentration: alginogel with GOX+LPO, enhancer 0.0005%; for antimicrobial activity of enhancing candidate only against S. aureus: alginogel without enzymes, highest concentration tested; for reduction in absolute S. aureus counts compared to reference (enzymes only): alginogel, 0.0075% GOX+LPO
Method: as §1
The purpose of the hereby described experiment was to compare the efficacy of antimicrobial activity enhancement of the GOX+LPO (1:1) enzyme combination by ethanolamine and proline in a microbial challenge test using S. aureus. The test was set up as described in the section on ‘challenge testing’ in Example 2.4. The test was repeated at least 3 times.
The purpose of the hereby described experiment was to compare the efficacy of antimicrobial activity of the GOX+LPO (1:1) enzyme combination in the presence of potassium chloride/potassium bromide and potassium iodide. A microbial challenge test using S. aureus was performed. The test was set up as described in the section on ‘challenge testing’ in Example 2.4.

[3] = system: Aspergillus niger ATCC®16404™; experiment: Absolute microbial counts in function of enzyme solution concentration; type: cell-based; conditions: 0.005%-0.000156% (v/v) GOX+LPO
Description: (§2) Absolute microbial counts in function of concentration of the antimicrobial agent tested are useful to monitor the bactericidal and fungicidal efficacy of that agent.
(§3) To determine the absolute number of live microorganisms in function of different enzyme solution concentrations tested, a classical broth microdilution assay combined with standard CFU enumeration techniques was used to determine the susceptibility of a series of microbes commonly detected in infected wounds, including (a) the Gram-positive bacterium Staphylococcus aureus ATCC® 6538™ (results shown below), (b) the Gram-negative bacterium Pseudomonas aeruginosa ATCC®9027™ (results shown below), (c) the yeast Candida albicans ATCC®10231™ (results shown below), and (d) the fungus Aspergillus niger ATCC®16404™ (results shown below). In brief, the broth microdilution assay was set up as previously described (see 2.1). After incubation, the absolute microbial count at the MIC and following higher concentrations (MICx2, MICx4, and so on) was determined using standard CFU enumeration techniques. For each combination evaluated, this test was repeated at least 5 times. The collected data were further analyzed in MS Excel and expressed as log CFU/ml. Mean results were plotted in function of enzyme solution concentration.

[4] = system: Pseudomonas aeruginosa ATCC®9027™; experiment: as above; type: cell-based; conditions: for reduction in absolute P. aeruginosa counts compared to reference and guaiacol solution: 0.005%-0.0000391% (v/v) GOX+LPO
Description: as §2, §3

[5] = system: Aspergillus niger ATCC®16404™; experiment: MBC determination, broth microdilution with CFU enumeration; type: cell-based; conditions: A. niger
Method: (§4) The minimal bactericidal concentration (MBC) is defined as the lowest concentration of an antimicrobial agent that results in a complete killing of the microbial population (determined via standard CFU enumeration techniques) after overnight incubation. This endpoint measurement is used, together with the MIC (see above), to define the microbial susceptibility towards an antimicrobial agent. Here, the antimicrobial agent is a combination of the natural enzymes GOX+LPO.
(§5) To determine the MBC of the described combinations, a classical broth microdilution assay combined with standard CFU enumeration techniques was used to determine the susceptibility of a series of microbes commonly detected in infected wounds, including (a) the Gram-positive bacterium Staphylococcus aureus ATCC® 6538™ (results shown below), (b) the Gram-negative bacterium Pseudomonas aeruginosa ATCC®9027™ (results shown below), (c) the yeast Candida albicans ATCC®10231™ (results shown below), and (d) the fungus Aspergillus niger ATCC®16404™ (results shown below). In brief, the broth microdilution assay was set up as previously described (see 2.1). After incubation, the MBC was determined by investigating the presence of viable microorganisms at the MIC and following higher concentrations (MICx2, MICx4, and so on) using standard CFU enumeration techniques. For each combination evaluated, this test was repeated at least 5 times. The collected data were further analyzed in MS Excel. Mean concentration data (expressed as log CFU/ml) were visualized in a table format in which the MBC was highlighted.

[6] = system: Pseudomonas aeruginosa ATCC®9027™; experiment: as above; type: cell-based; conditions: P. aeruginosa
Method: as §4, §5

[7] = enhancer 0,1%, 0,005%-0.000625% (v/v) GOX+LPO
[8] = enhancer 1%, 0,005%-0.000156% (v/v) GOX+LPO

SMILES | LogP (octanol/water partition coefficient) [1] | reduction in absolute P. aeruginosa counts compared to guaiacol in the same concentration [2] | antimicrobial activity of enhancing candidate only against P. aeruginosa [2] | reduction in absolute P. aeruginosa counts compared to reference (enzymes only) ([2]; enhancer 0.00125-0.0005%) | reduction in absolute P. aeruginosa counts compared to reference (enzymes only) ([2]; enhancer 0.0025%) | reduction in absolute S. aureus counts compared to guaiacol in the same concentration (S. aureus (ATCC®6538™)) | antimicrobial activity of enhancing candidate only against S. aureus (S. aureus (ATCC®6538™)) | reduction in absolute S. aureus counts compared to reference (enzymes only) (S. aureus (ATCC®6538™); enhancer 0.00125-0.0005%) | reduction in absolute S. aureus counts compared to reference (enzymes only) (S. aureus (ATCC®6538™); enhancer 0.0025%) | reduction in absolute P. aeruginosa counts compared to reference [4, 7] | reduction in absolute P. aeruginosa counts compared to reference [4, 8] | MBC: GOX+LPO enzyme solution needed ([6]; enhancer 0,1%) | increase in MBC compared to reference ([6]; enhancer 0,1%) [×] | MBC: GOX+LPO enzyme solution needed ([6]; enhancer 1%) | increase in MBC compared to reference ([6]; enhancer 1%) [×] | reduction in absolute A. niger counts compared to reference ([3]; enhancer 1-0.01%) | MBC: GOX+LPO enzyme solution needed ([5]; enhancer 1%-0.01%) | increase in MBC compared to reference ([5]; enhancer 1%-0.01%) [×] | also measured
CC[C@H](C)[C@H](N)C(=O)O [Isoleucine, isoleucine] | LogP = −1.72 | faster complete reduction | no antimicrobial activity | faster complete reduction | immediate entire reduction | faster complete reduction | no antimicrobial activity | faster complete reduction | immediate entire reduction | stronger reduction | stronger reduction | 0.000625 % (v/v) | 2 | 0.000156 % (v/v) | 8 |  |  |  | reduction in absolute A. niger counts compared to reference ([3]; enhancer 1-0.005%): stronger reduction; MBC: GOX+LPO enzyme solution needed ([5]; enhancer 1%-0.005%): 0.000156 % (v/v); increase in MIC compared to reference (MBC section) ([5]; enhancer 1%-0.005%): 2 ×
O=C(O)[C@@H]1CCCN1 [Proline, proline] | LogP = −2.54 | faster complete reduction | no antimicrobial activity | faster complete reduction | immediate entire reduction | faster complete reduction | no antimicrobial activity | faster complete reduction | immediate entire reduction |  |  |  |  |  |  | stronger reduction | 0.000156 % (v/v) | 2 | exposure time to complete reduction of absolute S. aureus counts (average) (S. aureus (ATCC®6538™); alginogel with GOX+LPO (1:1), enhancer 0,0005% (v/v)): 60 min; reduction in absolute P. aeruginosa counts compared to reference and guaiacol solution ([4]; enhancer 0.0025-0.00125%): stronger reduction; reduction in absolute P. aeruginosa counts compared to reference and guaiacol solution ([4]; enhancer 0.01-0.001%): stronger reduction; MBC: GOX+LPO enzyme solution needed ([6]; enhancer 0.0025-0.00125%): 0.000625 % (v/v); increase in MBC compared to reference or guaiacol solution ([6]; enhancer 0.0025-0.00125%): 2 ×; MBC: GOX+LPO enzyme solution needed ([6]; enhancer 0.01-0.005%): 0.000625 % (v/v); increase in MBC compared to reference or guaiacol solution ([6]; enhancer 0.01-0.005%): 2 ×
NC(=O)CC[C@H](N)C(=O)O [Glutamine, glutamine] | LogP = −3.15 | faster complete reduction | no antimicrobial activity | faster complete reduction | immediate entire reduction | faster complete reduction | no antimicrobial activity | faster complete reduction | immediate entire reduction | stronger reduction | stronger reduction | 0.000625 % (v/v) | 2 | 0.000156 % (v/v) | 8 | stronger reduction | 0.000156 % (v/v) | 2 | 
C[C@@H](O)[C@H](N)C(=O)O [Threonine, threonine] | LogP = −2.94 | faster complete reduction | no antimicrobial activity | faster complete reduction | immediate entire reduction | faster complete reduction | no antimicrobial activity | faster complete reduction | immediate entire reduction | stronger reduction | stronger reduction | 0.000625 % (v/v) | 2 | 0.000156 % (v/v) | 8 | stronger reduction | 0.000156 % (v/v) | 2 | 
